In brackets after ≈: the same amount, converted by molar mass.
Tested on: B. fragilis
Test: In vitro activity against anaerobes (MIC), B. fragilis
Assay type: cell-based
Conditions: Bacteroides fragilis, B. fragilis A21900; β-lactamase (-); clindamycin resistant

**Q.** With `CC1=C(C(=O)O)N2C(=O)[C@@H](NC(=O)[C@H](N)c3ccccc3)[C@H]2SC1` [Cephalexin] as the compound, how does the MIC read?
**A.** 12.5 µg/mL (≈ 36 µM)

Reference: patent publication US4520022A, “Substituted vinyl cephalosporins” (priority 1983, dated 1985)
